From PMC10247784, “Physiological activation of human and mouse bitter taste receptors by bile acids” (Communications Biology, 2023)

Molecular target: T1, mouse Tas2r144 (Mus musculus, UniProt Q7TQB8)
T1 construct: expressed in transfected cells; host or cells: HEK293T-Gα16gust44
Test: Calcium imaging assay (FLIPR), HEK293T-Gα16gust44 cells transfected with mouse Tas2r144
Assay type: cell-based
Conditions: for Δ F/F: Tas2r144

T1 sequence (Q7TQB8 whole entry): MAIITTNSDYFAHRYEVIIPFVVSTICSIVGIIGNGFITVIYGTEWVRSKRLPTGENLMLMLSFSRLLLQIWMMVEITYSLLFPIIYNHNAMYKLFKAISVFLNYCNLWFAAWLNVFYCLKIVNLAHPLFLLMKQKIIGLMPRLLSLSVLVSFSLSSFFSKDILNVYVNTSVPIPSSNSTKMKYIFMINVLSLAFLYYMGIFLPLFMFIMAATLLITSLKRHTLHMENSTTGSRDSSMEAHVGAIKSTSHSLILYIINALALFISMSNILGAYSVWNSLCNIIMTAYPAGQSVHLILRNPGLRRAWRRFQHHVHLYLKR

C[C@H](CCC(=O)NCCS(=O)(=O)O)[C@H]1CC[C@H]2[C@@H]3[C@H](O)C[C@@H]4C[C@H](O)CC[C@]4(C)[C@H]3C[C@H](O)[C@]12C [Taurocholic Acid, taurocholic acid]
Δ F/F (conc. 0,01 mM): -0.002199 | Δ F/F (conc. 0,1 mM): 0.02935 | Δ F/F (conc. 0,03 mM): 0.001887 | Δ F/F (conc. 0,3 mM): 0.09426 | Δ F/F (conc. 0,003 mM): -2.869e-5 | RLU (Time 0 s): 0 RLU | RLU (Time 2 s): 20.3472 RLU | RLU (Time 4 s): -2.315 RLU | RLU (Time 6 s): 2.885 RLU | RLU (Time 8 s): 19.0475 RLU | RLU (Time 12 s): 10.0521 RLU | RLU (Time 14 s): 38.5551 RLU | RLU (Time 16 s): 31.9896 RLU | RLU (Time 18 s): 16.9759 RLU | RLU (Time 18.781 s): 35.5911 RLU | RLU (Time 20.781 s): -26.0614 RLU | RLU (Time 22.781 s): 10.3855 RLU | RLU (Time 24.781 s): 42.5149 RLU | RLU (Time 26.781 s): 75.1117 RLU | RLU (Time 28.781 s): 107.959 RLU | RLU (Time 30.781 s): 191.931 RLU | RLU (Time 32.781 s): 233.393 RLU | RLU (Time 34.781 s): 329.647 RLU | RLU (Time 36.781 s): 353.155 RLU | RLU (Time 38.781 s): 375.923 RLU | RLU (Time 40.781 s): 418.403 RLU | RLU (Time 42.781 s): 459.472 RLU | RLU (Time 44.781 s): 478.994 RLU | RLU (Time 46.781 s): 502.94 RLU | RLU (Time 48.781 s): 488.439 RLU | RLU (Time 50.781 s): 507.687 RLU | RLU (Time 52.781 s): 535.446 RLU | RLU (Time 54.781 s): 537.48 RLU | RLU (Time 56.781 s): 552.298 RLU | RLU (Time 58.781 s): 553.568 RLU | RLU (Time 60.781 s): 540.78 RLU | RLU (Time 62.781 s): 553.576 RLU | RLU (Time 64.781 s): 587.565 RLU | RLU (Time 66.781 s): 607.94 RLU | RLU (Time 68.781 s): 577.506 RLU | RLU (Time 70.781 s): 560.61 RLU | RLU (Time 72.781 s): 573.499 RLU | RLU (Time 74.781 s): 563.961 RLU | RLU (Time 76.781 s): 534.766 RLU | RLU (Time 78.781 s): 571.912 RLU | RLU (Time 80.781 s): 551.232 RLU | RLU (Time 82.781 s): 526.613 RLU | RLU (Time 84.781 s): 546.451 RLU | RLU (Time 86.781 s): 562.077 RLU | RLU (Time 88.781 s): 533.968 RLU | RLU (Time 90.781 s): 548.478 RLU | RLU (Time 92.781 s): 529.823 RLU | RLU (Time 94.781 s): 519.583 RLU | RLU (Time 96.781 s): 507.965 RLU | RLU (Time 98.781 s): 551.349 RLU | RLU (Time 100.781 s): 524.649 RLU | RLU (Time 102.781 s): 541.47 RLU | RLU (Time 104.781 s): 532.417 RLU | RLU (Time 106.781 s): 501.886 RLU | RLU (Time 108.781 s): 527.817 RLU | RLU (Time 110.781 s): 463.149 RLU | RLU (Time 112.781 s): 531.02 RLU | RLU (Time 114.781 s): 478.341 RLU | RLU (Time 116.781 s): 478.013 RLU | RLU (Time 118.781 s): 466.916 RLU | RLU (Time 120.781 s): 480.033 RLU | RLU (Time 122.781 s): 446.768 RLU | RLU (Time 124.781 s): 466.738 RLU | RLU (Time 126.781 s): 436.51 RLU | RLU (Time 128.781 s): 391.35 RLU | RLU (Time 130.781 s): 423.189 RLU | RLU (Time 132.781 s): 388.666 RLU | RLU (Time 134.781 s): 393.586 RLU | RLU (Time 136.781 s): 381.514 RLU | RLU (Time 137.562 s): 357.695 RLU | RLU (Time 143.562 s): 342.181 RLU | RLU (Time 149.562 s): 317.247 RLU | RLU (Time 155.562 s): 281.598 RLU | RLU (Time 161.562 s): 257.735 RLU | RLU (Time 167.562 s): 210.766 RLU | RLU (Time 173.562 s): 206.542 RLU | RLU (Time 179.562 s): 190.508 RLU | RLU (Time 185.562 s): 200.355 RLU | RLU (Time 191.562 s): 160.215 RLU | RLU (Time 197.562 s): 155.746 RLU | RLU (Time 203.562 s): 134.432 RLU | RLU (Time 209.562 s): 105.802 RLU | RLU (Time 215.562 s): 143.523 RLU | RLU (Time 221.562 s): 59.3524 RLU | RLU (Time 227.562 s): 55.9412 RLU | RLU (Time 233.562 s): 52.6104 RLU | RLU (Time 239.562 s): 63.4802 RLU | RLU (Time 245.562 s): 58.9605 RLU | RLU (Time 293.562 s): 59.2604 RLU | RLU (Time 299.562 s): 83.1975 RLU | RLU (Time 305.562 s): 80.6402 RLU | RLU (Time 311.562 s): 35.6084 RLU | RLU (Time 317.562 s): 31.2984 RLU | RLU (Time 323.562 s): -1.058 RLU | RLU (Time 329.562 s): 12.6222 RLU | RLU (Time 335.562 s): -16.6341 RLU | RLU (Time 341.562 s): 9.34 RLU | RLU (Time 347.562 s): 17.8158 RLU | RLU (Time 353.562 s): 33.5062 RLU | RLU (Time 359.562 s): 34.8754 RLU | Activation threshold concentration Tas2r144 (p < 0.01 vs empty vector): 300 µM
